“And” between values parts separate entries of the source, which are not always exact repeats. Equal entries are not always repeated.
Target: T1, NS3 protease (dengue virus type 4, UniProt A0A0K0TQ36)
T1 sequence (A0A0K0TQ36 whole entry): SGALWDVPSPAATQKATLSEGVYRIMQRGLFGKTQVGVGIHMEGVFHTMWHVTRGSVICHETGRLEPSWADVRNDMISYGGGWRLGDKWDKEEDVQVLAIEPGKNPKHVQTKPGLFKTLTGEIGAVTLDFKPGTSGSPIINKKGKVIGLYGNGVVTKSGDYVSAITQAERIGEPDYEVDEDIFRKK
Assay: Functional biochemical assay to identify treatments for viral infectious disease that targets Dengue virus type 4 NS2B-NS3 protease. Utilizing a direct enzyme activity measurement method, reading the fluorescence intensity is used to characterize the relative potency of inhibitors as IC50.
Design: species or system Philippines/H241/1956

Structure (SMILES) | IC50
N=C(N)NCCC[C@H](NC(=O)c1nccs1)C(=O)N[C@@H](CCCCN)C(=O)N[C@@H](C(N)=O)c1ccc(OCc2ccc(C(F)(F)F)cc2)cc1 | 2.58 µM and 1.74 µM and 2.67 µM and 1.47 µM and 1.14 µM and 1.86 µM and 1.06 µM
N=C(N)NCCC[C@H](NC(=O)[C@H](Cc1ccc(CN)cc1)NC(=O)c1ccccc1)B(O)O | 0.793 µM and 0.503 µM
COCCNC(=O)[C@H](Nc1ccc2c(c1)CNC2)c1cc(Cl)cc(C2CC2)c1 | > 99.5 µM
O=C(NCC(F)F)[C@H](Nc1ccc2c(c1)CNC2)c1cc(Cl)cc(C2CC2)c1 | > 99.5 µM
O=C(Nc1ccc2c(c1)CNCC2)c1cc(Cl)cc2[nH]ncc12 | > 99.5 µM
CC(C)(C)c1cc(Br)cc(C(=O)Nc2ccc3c(c2)CNC3)c1 | > 99.5 µM
Clc1ccc2[nH]cc(Cc3ccc(-c4nn[nH]n4)cc3)c2c1 | 99.1 µM
CN1Cc2ccc(NC(=O)c3cc(Cl)cc4[nH]ncc34)cc2C1 | > 99.5 µM
O=C(Nc1ccc2c(c1)CNC2)c1cccc(-c2cnco2)c1 | 23.3 µM
Cn1cc2cc(Cl)cc(C(=O)Nc3ccc4c(c3)CNC4)c2n1 | > 99.5 µM
O=C(Nc1ccc2c(c1)CNC2)c1cc(Br)cc2ccccc12 | > 99.5 µM
O=C(Nc1ccc2c(c1)CNC2)c1cc(Cl)cc2c1CCC2 | > 99.5 µM
CNC(=O)[C@H](Nc1ccc2c(c1)CNC2)c1cc(Cl)cc(C2CC2)c1 | > 99.5 µM
O=C1Cc2c(cccc2C(=O)Nc2ccc3c(c2)CNC3)N1 | 15.1 µM
N#C[C@H](Nc1ccc2c(c1)CNC2)c1cc(Cl)cc(C2CC2)c1 | > 99.5 µM
O=C(Nc1cc(Cl)cc([C@H]2CN(Cc3ccccc3)C[C@@H]2c2cccc(-c3nn[nH]n3)c2)c1)OCc1ccccc1 | 6.83 µM
Clc1cc(CNc2ccc3c(c2)CNC3)c2cn[nH]c2c1 | 38.8 µM
CC(C)c1cc(Br)cc(C(=O)Nc2ccc3c(c2)CNC3)c1 | > 99.5 µM
O=C(NC1CCOCC1)[C@H](Nc1ccc2c(c1)CNC2)c1cc(Cl)cc(C2CC2)c1 | > 99.5 µM
Cn1cc(CNC(=O)[C@H](Nc2ccc3c(c2)CNC3)c2cc(Cl)cc(C3CC3)c2)cn1 | > 99.5 µM
O=C(Nc1cc(Cl)cc(C(=O)Nc2ccc3c(c2)CNC3)c1)OCc1ccccc1 | 91.3 µM
Cn1cc(CCc2nc3c(C(=O)Nc4ccc5c(c4)CNC5)cc(Cl)cc3[nH]2)cn1 | 26.4 µM
O=C(Nc1ccc2c(c1)CNC2)c1cc(F)cc2[nH]ncc12 | > 99.5 µM
Cc1c(C(=O)Nc2cc([C@H]3CCOC3)ccn2)cc(C2CC2)n1C | > 99.5 µM
O=C(Nc1ccc2c(c1)CNC2)c1cc(Cl)cc2ccncc12 | > 99.5 µM

Structure (SMILES) | IC50
O=C1Cc2c(cc(Br)cc2C(=O)Nc2ccc3c(c2)CNC3)N1 | 87.9 µM
CC(C)NC(=O)[C@H](Nc1ccc2c(c1)CNC2)c1cc(Cl)cc2[nH]c(-c3ccccc3)nc12 | 14.6 µM and 4.38 µM
O=C(Nc1cc(Cl)cc([C@H](C#CCO)Nc2cccc(-c3nn[nH]n3)c2)c1)OCc1ccccc1 | 15.9 µM
O=C(Nc1ccc2c(c1)CNC2)c1cc(Cl)cc2cn[nH]c12 | > 99.5 µM
NCc1cccc([C@H]2C[C@@H]2c2cc(Cl)cc(NC(=O)OCc3ccccc3)c2)c1 | 7.94 µM
C=CC[C@H]1NCc2cc(NC(=O)c3cccc4c3CC(=O)N4)ccc21 | > 99.5 µM
N#C[C@H](Nc1cccc(-c2nn[nH]n2)c1)c1cc(Cl)cc(NC(=O)OCc2ccccc2)c1 | 12.4 µM
O=C(Nc1ccc2c(c1)CNC2)c1cc(Cl)cc2[nH]ncc12 | > 99.5 µM
O=C(Nc1ccc2c(c1)CNC2)c1cc(Br)cc2[nH]c(=O)[nH]c12 | 38.7 µM
N#C[C@H](Nc1ccc2c(c1)CNC2)c1cc(Cl)cc2[nH]ncc12 | > 99.5 µM
O=C(Nc1cc(Cl)cc(C(=O)Nc2cccc([C@H]3C[C@H]3C(=O)O)c2)c1)OCc1ccccc1 | 32.8 µM
Clc1cc([C@@H]2C[C@H]2c2cccc(C3CCNCC3)c2)c2cn[nH]c2c1 | 5.84 µM
Cc1c(C(=O)Nc2cc(-c3cccnc3)ccn2)cc(C2CC2)n1C | 6.83 µM
O=C(NCC(F)F)[C@H](Nc1ccc2c(c1)CNC2)c1cc(F)cc2[nH]ccc12 | > 99.5 µM
Cc1nc2c(C(=O)Nc3ccc4c(c3)CNC4)cc(Cl)cc2[nH]1 | 26.7 µM
O=C(Nc1cc(Cl)cc(-c2ccc3[nH]c(C(=O)O)cc3c2)c1)OCc1ccccc1 | 6.92 µM
O=C(NCCC1CC1)[C@H](Nc1ccc2c(c1)CNC2)c1cc(Cl)cc(C2CC2)c1 | > 99.5 µM
C=CC[C@H]1NCc2cc(NC(=O)c3cc(F)cc4[nH]ncc34)ccc21 | > 99.5 µM
O=C(Nc1cc(Br)c2c(c1)CNC2)c1cc(F)cc2[nH]ncc12 | > 99.5 µM
C=CC[C@H](Nc1cc(Cl)cc(NC(=O)OCc2ccccc2)c1)c1cccc(-c2nn[nH]n2)c1 | 7.78 µM
CNC(=O)[C@H](Nc1cc(CN)cc(C(=O)O)c1)c1cc(Cl)cc(C2CC2)c1 | > 99.5 µM
O=C(NCC(F)F)[C@H](Nc1ccc2c(c1)CNC2)c1cc(F)cc2[nH]ncc12 | > 99.5 µM
O=C1Cc2c(cc(F)cc2C(=O)Nc2ccc3c(c2)CNC3)N1 | 53.7 µM
O=C(Nc1cc(Cl)cc([C@H]2C[C@@H]2c2cccc(C3CCNCC3)c2)c1)OCc1ccccc1 | 5.51 µM
CC(C)CNC(=O)c1cc(Cl)ccc1NS(=O)(=O)c1ccc(Oc2ccccc2Cl)cc1 | 15 µM

Structure (SMILES) | IC50
C=CC[C@H]1NCc2cc(N[C@H](C(=O)NC(C)C)c3cc(Cl)cc4[nH]ncc34)ccc21 | > 99.5 µM
O=C(NC1CCOCC1)[C@H](Nc1ccc2c(c1)CNC2)c1cc(Cl)cc2[nH]ncc12 | 43.9 µM
CNC(=O)[C@H](Nc1cc(Cl)cc(NC(=O)OCc2ccccc2)c1)c1cccc(-c2nn[nH]n2)c1 | 61.6 µM
O=C(Nc1ccc2c(c1)CNC2)c1cc(F)c2[nH]ccc2c1 | > 99.5 µM
N[C@H]1CC[C@H](c2ccc(NC(=O)c3cc(Cl)cc(NC(=O)OCc4ccccc4)c3)cc2)C1 | 7.64 µM
OCC#C[C@H](Nc1ccc2c(c1)CNC2)c1cc(Cl)cc2[nH]ncc12 | 22.3 µM
NCc1cccc(NC(=O)c2cc(Cl)cc(NC(=O)OCc3ccccc3)c2)c1 | 34.6 µM
c1cc(C2CCN(Cc3c[nH]c4ccccc34)CC2)c2ccncc2c1 | > 99.5 µM
Cc1cccc(-c2nc3c(C(=O)Nc4ccc5c(c4)CNC5)cc(Cl)cc3[nH]2)c1O | 3.54 µM
CNC(=O)[C@H](Nc1cccc(CN)c1)c1cc(Cl)cc(NC(=O)OCc2ccccc2)c1 | > 99.5 µM
O=C(Nc1ccc2c(c1)CNC2)c1cccc2[nH]c(=O)[nH]c12 | 74.5 µM
CCc1cc(C(=O)Nc2cccc(-n3nn[nH]c3=O)c2)sc1-c1ccc(Cl)cc1 | 13.1 µM
Cc1c(C(=O)Nc2cc(CCCN)ccn2)cc(C2CC2)n1C | 39.2 µM
NCc1ccc([C@H]2C[C@@H]2c2cc(Cl)cc(NC(=O)OCc3ccccc3)c2)cc1 | 6.87 µM
CCOCCNC(=O)[C@H](Nc1ccc2c(c1)CNC2)c1cc(Cl)cc2[nH]ncc12 | > 99.5 µM
O=C(Nc1cc(Cl)cc(C(=O)Nc2ccc3c(c2)CCNC3)c1)OCc1ccccc1 | 32.1 µM
Cc1ccc(NC(=O)c2cc(Cl)cc(NC(=O)OCc3ccccc3)c2)cc1CN | 70.7 µM
O=C(Nc1ccc2c(c1)CNC2)c1cc(F)cc2[nH]c(-c3ccccc3)nc12 | 5.41 µM
O=C(Nc1ccc2c(c1)CNC2)c1cc(Cl)cc2nn(-c3ccccc3)nc12 | 5.25 µM
Cc1[nH]c2ccccc2c1CN1CCC(c2c[nH]c3ncccc23)CC1 | > 99.5 µM
O=C(Nc1cc2c(cc1Br)CNC2)c1cc(F)cc2[nH]ncc12 | > 99.5 µM
CNC(=O)[C@H](Nc1cc(CN)cc(-c2nn[nH]n2)c1)c1cc(Cl)cc(C2CC2)c1 | > 99.5 µM
O=C(Nc1cc(Cl)cc(C(=O)Nc2cccc(-n3nn[nH]c3=O)c2)c1)OCc1ccccc1 | 13.9 µM
